Read-outs that look alike come from different tables or passages of the source.
What was measured:
[1] = for Volume of distribution in the peripheral compartment 2, V3: exp(6); for Volume of distribution in the peripheral compartment 2, V3 / Clearance between the central compartment and the peripheral compartment 2, Q3: parameter fixed (FIX); for Intercompartmental clearance between the central compartment and the peripheral compartment 1, Q2: exp(θ3); for Volume of distribution in the peripheral compartment 1, V2: exp(θ4); for Clearance between the central compartment and the peripheral compartment 2, Q3: exp(θ5); for Residual (%): σ1; for Clearance, CL %: ωCL (interindividual variation); for Volume of distribution in the central compartment, V1%: ωV1 (interindividual variation)
Experimental: (§1) A pharmacokinetic data set included in the analysis are determined by evaluating the clinical trial data included: • plasma drug concentration data: acquired by means of implementation of the sampling scheme (see FIG. 8); • baseline demographic characteristic data: race, age, height, weight and gender; • blood biochemical index data: blood total protein content, creatinine clearance, glutamic-oxalacetic transaminase and glutamic-pyruvic transaminase; and • blood collection sites.
(§2) Establishing the preliminary foundation model on the basis of the data processed in step 3 comprising: • (1) describing interindividual variation of the PK parameters by using the following equation:
(§3) Establishing the final foundation model on the basis of the preliminary foundation model in step 4 comprising: • (1) determining covariates included in the evaluation on the basis of clinical knowledge and a drug action mechanism: • baseline demographic characteristic covariates: baseline values for age, gender, weight and race; • blood biochemical index covariates: creatinine clearance, total protein, glutamic-oxalacetic transaminase, glutamic-pyruvic transaminase, alkaline phosphatase and total bilirubin; and • blood collection sites. • (2) establishing a final population pharmacokinetic foundation model on the basis of the covariates included in the evaluation.
(§4) Establishing the population pharmacokinetic model by adding the screened covariates on the basis of the final foundation model in step 5 comprising: • (1) Pre-screening of covariates: • analyzing the correlation between the continuous covariates and the PK parameters by using the following equation:

clinical = settings: human, plasma, intravenous; for clearance: CL, exp(θ1); for Vd: Volume of distribution in the central compartment, V1, exp(θ2)
Experimental: as §1, §2, §3, §4

[2] = test system: γ-aminobutyric acid type A (GABAA) receptor; experiment: Potency compared with propofol (background statement)
[3] = Population pharmacokinetic (PopPK) three-compartment model of the propofol derivative from clinical trial plasma concentrations; format: in vivo, human; settings: for Intercompartmental clearance between the central compartment and the peripheral compartment 1, Q2: exp(θ3); for Volume of distribution in the peripheral compartment 1, V2: exp(θ4); for Clearance between the central compartment and the peripheral compartment 2, Q3: exp(θ5); for Volume of distribution in the peripheral compartment 2, V3: exp(θ6); for relative median change of CL by total protein: total protein range not given; for Residual of venous blood collection (%): σ1; for Residual of arterial blood collection (%): σ2; for Interindividual variation of clearance, CL %: ωCL; for Interindividual variation of intercompartmental clearance between the central compartment and the peripheral compartment 1, Q2%: ωQ2; for Interindividual variation of intercompartmental clearance between the central compartment and the peripheral compartment 2, Q3%: ωQ3; for Interindividual variation of volume of distribution in the central compartment, V1%: ωV1; for Interindividual variation of volume of distribution in the peripheral compartment 2, V3%: ωV3
Text: The original data set comprises 2609 measurable plasma drug concentration data from 219 subjects (wherein 81 people receive both arterial and venous blood collection, and subjects receiving another blood collecting method are regarded as new individuals, that is, 300 individuals are included in the population analysis).
By using a stepwise backward elimination method, no influence factors are eliminated (Δ−2LL>10.83).

[4] = Free drug concentration in the aqueous phase by ultrafiltration method; format: physicochemical; settings: same conditions and concentrations, compared with propofol (Jingan®)
Text: Propofol derivative injectable emulsion (hereinafter referred to as propofol derivative, with a chemical name of 2-[(1R)-1-cyclopropylethyl]-6-isopropyl-phenol), which is developed by Sichuan Haisco Pharmaceutical Co., Ltd. as a novel intravenous anesthetic with independent intellectual property rights, is intended to be used for sedation/anesthesia in various diagnostic examinations or treatments, induction and maintenance of general anesthesia, and sedation (ICU sedation) of intensive care subjects under mechanical ventilation. The propofol derivative, as the active ingredient, is a chemical entity similar to propofol, and is a single […] with two chiral centers of R-configuration. […] The main action mechanism of the propofol derivative is to allow for the inflow of chloride ions by enhancing an ion channel mediated by a γ-aminobutyric acid type A (GABAA) receptor, thereby achieving the inhibition of the nervous centralis. The channel is also a main target where propofol exerts its effects. The propofol derivative has the pharmacodynamic characteristics of fast onset of action and stable and rapid recovery.

[5] = typical value of final population model
[6] = median of Bootstrap (2.5th to 97.5th percentiles)
[7] = typical value of final population model (95% CI)

Structure (SMILES): CC(C)c1cccc(C(C)C)c1O [propofol]
- influence of covariates on the pharmacokinetic parameters ([1]; covariate screening, forward and backward method): not found that covariates have a significant influence
- Volume of distribution in the peripheral compartment 2, V3 ([1]; Bootstrap column): 262, FIX(—) L
- Volume of distribution in the peripheral compartment 2, V3 [1, 5]: 262, FIX(—) L
- Intercompartmental clearance between the central compartment and the peripheral compartment 1, Q2 [1, 6]: 132 (13.0 to 200) L/hr
- Intercompartmental clearance between the central compartment and the peripheral compartment 1, Q2 [1, 7]: 142 (88.4 to 196) L/hr
- Volume of distribution in the peripheral compartment 1, V2 [1, 6]: 35.6 (1.64 to 53.3) L
- Volume of distribution in the peripheral compartment 1, V2 [1, 7]: 37.6 (25.2 to 50.0) L
- Clearance between the central compartment and the peripheral compartment 2, Q3 ([1]; Bootstrap column): 48.6, FIX(—) L/hr
- Clearance between the central compartment and the peripheral compartment 2, Q3 [1, 5]: 48.6, FIX(—) L/hr
- Residual (%) [1, 6]: 17.1 (11 to 23.1) %
- Residual (%) [1, 7]: 19.2 (12.7 to 25.7) %
- Clearance, CL % [1, 6]: 22.5 (13.6 to 30.6) %
- Clearance, CL % [1, 7]: 23.0 (14.8 to 31.1) %
- Volume of distribution in the central compartment, V1% [1, 6]: 32.4 (6.02 to 49.5) %
- Volume of distribution in the central compartment, V1% [1, 7]: 30.5 (8.11 to 52.9) %
- clearance (clinical; [6]): 1530 mL/min
- clearance (clinical; [7]): 1590 mL/min
- Vd (clinical; [6]): 8.92 L
- Vd (clinical; [7]): 9.46 L

Structure (SMILES): CC(C)c1cccc([C@H](C)C2CC2)c1O [propofol derivative, 2-[(1R)-1-cyclopropylethyl]-6-isopropyl-phenol]
- potency relative to propofol [2]: 4-5 times
- influence of age on AUC0-24 ([3]; age 19.8 to 53 years old, propofol derivative-302 trial): no influence
- influence of age on Cmax ([3]; age 19.8 to 53 years old, propofol derivative-302 trial, expected to be clinically insignificant): has an influence
- Clearance, CL ([3]; exp(θ1), median of Bootstrap (2.5th to 97.5th percentiles)): 66.4 (63.7 to 69.4) L/hr
- Volume of distribution in the central compartment, V1 ([3]; exp(θ2), median of Bootstrap (2.5th to 97.5th percentiles)): 2.48 (2.27 to 2.74) L
- Intercompartmental clearance between the central compartment and the peripheral compartment 1, Q2 [3, 6]: 57.9 (51.5 to 65.6) L/hr
- Intercompartmental clearance between the central compartment and the peripheral compartment 1, Q2 [3, 7]: 58 (50.8 to 65.1) L/hr
- Volume of distribution in the peripheral compartment 1, V2 [3, 6]: 5.74 (5.07 to 6.7) L
- Volume of distribution in the peripheral compartment 1, V2 [3, 7]: 5.77 (4.96 to 6.58) L
- Clearance between the central compartment and the peripheral compartment 2, Q3 [3, 6]: 59.1 (54.6 to 63.6) L/hr
- Clearance between the central compartment and the peripheral compartment 2, Q3 [3, 7]: 59.0 (54.5 to 63.5) L/hr
- Volume of distribution in the peripheral compartment 2, V3 [3, 6]: 78.4 (73 to 83.9) L
- Volume of distribution in the peripheral compartment 2, V3 [3, 7]: 78.3 (72.8 to 83.8) L
- relative median change of CL by total protein ([3]; first value of the pair): 6.8%
- clearance ([3]; human, plasma, intravenous, exp(θ1), typical value of final population model (95% CI), read-out: Clearance, CL (converted)): 1110 mL/min
- Vd ([3]; human, plasma, intravenous, exp(θ2), typical value of final population model (95% CI), read-out: Volume of distribution in the central compartment, V1): 2.48 L
- relative median change of CL by total protein ([3]; second value of the pair): −6.3%
- relative median change of CL by weight ([3]; weight 45 kg (lower end of range 45 kg to 90 kg)): −11.6%
- relative median change of CL by weight ([3]; weight 90 kg (upper end of range 45 kg to 90 kg)): 12.7%
- Residual of venous blood collection (%) [3, 6]: 30.5 (26.3 to 34.6) %
- Residual of venous blood collection (%) [3, 7]: 30.6 (26.6 to 34.5) %
- Residual of arterial blood collection (%) [3, 6]: 16.9 (15.7 to 18.2) %
- Residual of arterial blood collection (%) [3, 7]: 16.9 (15.8 to 18.1) %
- Interindividual variation of clearance, CL % [3, 6]: 14.3 (11.9 to 17) %
- Interindividual variation of clearance, CL % [3, 7]: 14.5 (12 to 16.9) %
- Interindividual variation of intercompartmental clearance between the central compartment and the peripheral compartment 1, Q2% [3, 6]: 29.0 (23.1 to 35.5) %
- Interindividual variation of intercompartmental clearance between the central compartment and the peripheral compartment 1, Q2% [3, 7]: 28.9 (23.1 to 34.7) %
- Interindividual variation of intercompartmental clearance between the central compartment and the peripheral compartment 2, Q3% [3, 6]: 28.8 (22.8 to 36.3) %
- Interindividual variation of intercompartmental clearance between the central compartment and the peripheral compartment 2, Q3% [3, 7]: 29.1 (23.1 to 35.1) %
- Interindividual variation of volume of distribution in the central compartment, V1% [3, 6]: 40.4 (27.7 to 54.5) %
- Interindividual variation of volume of distribution in the central compartment, V1% [3, 7]: 41.4 (28 to 54.9) %
- Interindividual variation of volume of distribution in the peripheral compartment 2, V3% [3, 6]: 30.5 (25.3 to 35.7) %
- Interindividual variation of volume of distribution in the peripheral compartment 2, V3% [3, 7]: 30.7 (25.6 to 35.8) %
- free drug concentration in the aqueous phase [4]: lower free drug concentration in the aqueous phase

From patent publication US20250372228A1, “METHOD AND SYSTEM FOR D[…] PHARMACOKINETIC MODEL OF PROPOFOL AND DERIVATIVE THEREOF” (Xizang Haisco Pharmaceutical Co., Ltd., priority 2020, published 2025)
